Laboratory results: US20230118955A1 (priority 2020, published 2023)
Marks after values point to notes of the source that are not given here.

What was measured:
[1] = test system: 3CLpro protease; assay type: biochemical, SARS-CoV
[2] = test system: recombinant human furin; assay: Furin cleavage of Site S1 peptide (Peptide 1, Acetyl-SPRRAR-pNA) after incubation with MGO; assay type: biochemical; conditions: 8 mM MGO, 400 μM peptide 1, 5 nM furin
[3] = test system: trypsin; assay: Trypsin (surrogate for TMPRSS2) cleavage of Site S2' peptide (Peptide 2, Acetyl-SKPSKR-pNA) after incubation with MGO; assay type: biochemical; conditions: 8 mM MGO, 400 μM peptide 2, 5 nM trypsin
[4] = test system: SARS-CoV-1; assay type: cell-based
[5] = test system: SARS-CoV-2; assay type: cell-based

## O=c1c(O)c(-c2ccc(O)c(O)c2)oc2cc(O)cc(O)c12 [quercetin]
[1]
  inhibition of 3CLpro protease activity (cleavage of pNA substrate): inhibit activity of 3CLpro protease

## O=c1cc(-c2ccc(O)c(O)c2)oc2cc(O)cc(O)c12 [luteolin]
[1]
  inhibition of 3CLpro protease activity (cleavage of pNA substrate): inhibit activity of 3CLpro protease

## COc1ccc([C@@H]2CC(=O)c3c(O)cc(O[C@@H]4O[C@H](CO[C@@H]5O[C@@H](C)[C@H](O)[C@@H](O)[C@H]5O)[C@@H](O)[C@H](O)[C@H]4O)cc3O2)cc1O [hesperidin]
[1]
  inhibition of 3CLpro protease activity (cleavage of pNA substrate): inhibit activity of 3CLpro protease

## O=C(O)/C=C/c1ccc(O)cc1 [p-coumaric acid]
[1]
  inhibition of 3CLpro protease activity (cleavage of pNA substrate): inhibit activity of 3CLpro protease

## CC(=O)C=O [MGO, methylglyoxal]
[2]; incubation 3 h
  reduction in pNA liberated (activation of peptide 1 by furin): 97%
[2]; incubation 4 h
  reduction in pNA liberated (activation of peptide 1 by furin): 97%
[2]; incubation time 0
  reduction in pNA liberated (activation of peptide 1 by furin): 90%
[3]; incubation 4 h
  reduction in pNA liberated (activation of peptide 2 by trypsin): 88%
[3]; incubation time 0
  reduction in pNA liberated (activation of peptide 2 by trypsin): 21%

## CCO [EtOH, ethanol]
[4]
  LRV (log10 reduction of virus compared to the virus control): 2.8 log10
  Virus (CCID50/0.1 mL): 1.5 ± 0.2 CCID50/0.1 mL
[5]
  LRV (log10 reduction of virus compared to the virus control): 3.9 log10
  Virus (CCID50/0.1 mL): <0.7**** CCID50/0.1 mL

## O=C1c2c(O)cc(O)cc2O[C@H](c2ccccc2)[C@H]1O [pinobanksin]
[1]
  inhibition of 3CLpro protease activity (cleavage of pNA substrate): inhibit activity of 3CLpro protease

## O=C(O)C(O)Cc1ccccc1 (stereo not drawn) [3-phenyllactic acid]
[1]
  inhibition of 3CLpro protease activity (cleavage of pNA substrate): inhibit activity of 3CLpro protease

## O=C1C[C@@H](c2ccccc2)Oc2cc(O)cc(O)c21 [pinocembrin]
[1]
  inhibition of 3CLpro protease activity (cleavage of pNA substrate): inhibit activity of 3CLpro protease

## O=c1c(O)c(-c2ccc(O)cc2)oc2cc(O)cc(O)c12 [kaempferol]
[1]
  inhibition of 3CLpro protease activity (cleavage of pNA substrate): inhibit activity of 3CLpro protease

## O=c1c(O)c(-c2ccccc2)oc2cc(O)cc(O)c12 [galangin]
[1]
  inhibition of 3CLpro protease activity (cleavage of pNA substrate): inhibit activity of 3CLpro protease
